Calls of active or inactive are those of the source. The rule behind the calls is not given here.
How the values were obtained:
[1] = biological target: T1, Protein cereblon/Bromodomain-containing protein 4 (Homo sapiens) (UniProt O60885+Q96SW2); experiment: Protac activity at CRBN/BRD4 in human MM1.S cells assessed as induction of BRD4 protein degradation by measuring residual activity at 30 nM measured after 6 hrs by Western blot analysis (reference value: 100%); format: cell-based
[2] = biological target: T1, Protein cereblon/Bromodomain-containing protein 4 (Homo sapiens); experiment: Protac activity at CRBN/BRD4 in human MV4-11 cells assessed as induction of BRD4 protein degradation by measuring residual activity at 0.009 uM incubated for 3 hrs by Western blot analysis relative to control; format: cell-based
[3] = biological target: T1, Protein cereblon/Bromodomain-containing protein 4 (Homo sapiens); experiment: Protac activity at CRBN/BRD4 in human MV4-11 cells assessed as induction of BRD4 protein degradation by measuring residual activity at 30 nM measured immediately by Western blot analysis (reference value: 100%); format: cell-based
[4] = biological target: T1, Protein cereblon/Bromodomain-containing protein 4 (Homo sapiens); experiment: Protac activity at CRBN/BRD4 in human MV4-11 cells assessed as induction of BRD4 protein degradation by measuring residual activity at 30 nM measured after 9 hrs by Western blot analysis (reference value: 100%); format: cell-based
[5] = Inhibition of TGF-beta induced activation of human MRC5 cells assessed as residual BRD4 protein level at 1 uM by Western blot analysis (reference value: 96%); format: functional
[6] = biological target: T1, Protein cereblon/Bromodomain-containing protein 4 (Homo sapiens); experiment: Protac activity at CRBN/BRD4 in human MV4-11 cells assessed as downregulation of MYC protein expression at 30 uM incubated for 3 hrs by Western blot analysis; format: cell-based
[7] = biological target: T1, Protein cereblon/Bromodomain-containing protein 4 (Homo sapiens); experiment: Protac activity at CRBN/BRD4 in human MV4-11 cells assessed as induction of BRD4 protein degradation by measuring residual activity at 30 nM measured after 3 hrs by Western blot analysis (reference value: 100%); format: cell-based
MV4-11 = experiment: Antiproliferative activity against human […] cells assessed as inhibition of cell growth incubated for 72 hrs MTS assay; format: functional, cell-based; settings: MV4-11, 72 h
[8] = biological target: T1, Protein cereblon/Bromodomain-containing protein 4 (Homo sapiens); experiment: Protac activity at CRBN/BRD4 in human MM1.S cells assessed as downregulation of MYC protein expression at […] incubated for 3 hrs by Western blot analysis; format: cell-based
[9] = biological target: T1, Protein cereblon/Bromodomain-containing protein 4 (Homo sapiens); experiment: Protac activity at CRBN/BRD4 in human MM1.S cells assessed as induction of BRD4 protein degradation by measuring residual activity at 300 nM preincubated with lenalidomide for 2 hrs followed by compound addition and measured after 6 hrs by Western blot analysis (reference value: 100%); format: cell-based
[10] = biological target: T1, Protein cereblon/Bromodomain-containing protein 4 (Homo sapiens); experiment: Protac activity at CRBN/BRD4 in human MM1.S cells assessed as induction of BRD4 protein degradation by measuring residual activity at 1000 nM measured after 6 hrs by Western blot analysis (reference value: 100%); format: cell-based

T1 sequence (Q96SW2 whole entry, looked up, other chains not shown): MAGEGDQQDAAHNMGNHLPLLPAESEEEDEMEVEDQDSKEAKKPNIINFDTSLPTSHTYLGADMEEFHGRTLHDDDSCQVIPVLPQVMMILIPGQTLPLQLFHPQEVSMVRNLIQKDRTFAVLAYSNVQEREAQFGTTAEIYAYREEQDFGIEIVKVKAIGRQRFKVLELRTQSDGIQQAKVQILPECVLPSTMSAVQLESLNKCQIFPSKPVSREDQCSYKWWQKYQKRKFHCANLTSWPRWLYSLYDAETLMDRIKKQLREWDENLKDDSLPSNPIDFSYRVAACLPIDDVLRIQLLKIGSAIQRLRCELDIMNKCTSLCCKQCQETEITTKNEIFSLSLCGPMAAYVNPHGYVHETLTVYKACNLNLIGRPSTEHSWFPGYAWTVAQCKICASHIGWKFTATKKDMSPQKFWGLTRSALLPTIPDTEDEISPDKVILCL

Activity [1]: 42%
Activity [2]: 62%
Activity [3]: 110%
Activity [4]: 49%
Activity [6]: Active
Activity [7]: 72%
IC50 (MV4-11): 3 nM
Activity [8]: inactive
Activity [9]: 67%
Activity [10]: 10%
Compound: Cc1sc2c(c1C)C(c1ccc(Cl)cc1)=N[C@@H](CC(=O)NCCCCC(=O)NCCNc1cccc3c1C(=O)N(C1CCC(=O)NC1=O)C3=O)c1nnc(C)n1-2 (stereo partly specified)
Activity [5]: 40%

From ChEMBL document CHEMBL5236646, “Design, synthesis, and biological evaluation of BRD4 degraders” (Bioorg Med Chem, 2023)
